Test results taken from PubChem BioAssay AID2060610 (Molecular Pharmacology Branch, DTP, NCI, 2025).

System: 616215-338-R-J1-PDC complex spheroids, viability % test/control
Test: Anticancer human tumor 616215-338-R-J1-PDC patient-derived colon adenocarcinoma cell line growth inhibition [CLK]
Settings: for IC50: curve of first compound; for viability, T/C: stronger effect = lower value
From the text: A high-throughput screen of multi-cell type tumor spheroids was designed to identify active combinations of […] and targeted small molecules. Complex spheroids include a stromal component modeled by human endothelial cells (HUVEC) and fibroblasts modeled by human mesenchymal stem cells (MSCs). The concentration ranges selected for each drug and investigational agent were based upon clinically achievable concentrations if the clinical Cmax of the agent was known.
Compounds. The drugs and investigational agents: cirtuvivint (SM08502; NSC835563), CC-671 (NSC850746), vemurafenib (NSC761431), tapotoclax (NSC804041), sotorasib (NSC818433), adagrasib (NSC831453), MRTX-1133 (NSC836407), BAY2416964 (NSC825713), copanlisib (NSC816437), inavolisib (NSC800729), abemaciclib (NSC768073), osimertinib (NSC779217), entinostat (NSC756642), eltanexor (KPT-8602, NSC794443), venetoclax (NSC766270), ceralasertib (NSC777638), bortezomib (NSC756655), olaparib (NSC753686), talazoparib (NSC767125), alisertib (NSC759677), peposertib (NSC802822), gemcitabine (NSC613327), 5-fluorouracil (NSC19893), SN-38 (NSC673596), oxaliplatin (NSC266046), paclitaxel (NSC125973), and doxorubicin (NSC123127), were obtained from the National Cancer Institute (NCI) Developmental Therapeutics Program Chemical Repository. The FDA-approved anticancer drug set is available from the Developmental Therapeutics Program at https://dtp.cancer.gov/organization/dscb/obtaining/available plates.htm. […] The stock solutions were prepared in dimethyl sulfoxide (DMSO, Sigma-Aldrich, St. Louis, MO, cat. D2650), except for the platinum complexes which were prepared in saline (Quality Biological, Gaithersburg, MD, cat. 114-055-101), at 800-fold the tested concentration and stored at -70 degrees C prior to their use. All drugs and investigational agents were tested over a range starting from a high concentration at or near the clinical Cmax and decreasing in half-log increments. If the clinical Cmax for an agent had not been determined, the highest concentration tested was 10 microM.
Cell Culture. All cells were maintained in an incubator at 37 degrees C and 5% CO2 with 95% humidity. The PDC lines were cultured according to standard operating procedures established by the NCI PDMR. Briefly, all PDCs were thawed and cultured in Matrigel-coated flasks prepared with a working solution of 1X Ham's F-12 nutrient mix, without supplementation (Invitrogen, Waltham, MA, cat. 11765054), 100 U/mL penicillin-streptomycin (Invitrogen, cat. 15140122), and 2.5% Matrigel (Corning Inc., Corning, NY, cat. 354248) for the first three passages. The 947758-054-R-J2-PDC line was cultured in 6B/Colon 1A media, which includes advanced DMEM/F-12 (Thermo Fisher Scientific, cat. 12634028), 10 mM HEPES (Thermo Fisher Scientific, cat. 15630080), 1X GlutaMAX supplement (Thermo Fisher Scientific, cat. 35050061), 0.1 mg/mL primocin (InvivoGen, cat. ant-pm-2), 10% defined fetal bovine serum, heat inactivated (HyClone Laboratories Inc., cat. SH30070.03HI), 1.25 mM N-Acetyl-L-cysteine (Sigma-Aldrich, cat. A9165), 10 mM nicotinamide (Sigma-Aldrich, cat. N0636), 1X B-27 supplement (Thermo Fisher Scientific, cat. 17504044), 1X N-2 supplement (Thermo Fisher Scientific, cat. 17502048), and 10 microM Y-27632 dihydrochloride (Tocris Bioscience, cat. 1254). The 876862-298-R-J1-PDC was cultured in 6E media, which includes all 6B/Colon 1A media components plus 50% L-WRN conditioned media (ATCC, cat. CRL-3276), 50 ng/mL recombinant human EGF recombinant protein (hEGF; Thermo Fisher Scientific, cat. PHG0311), 10 ng/mL recombinant human fibroblast growth factor 10 (hGFG-10; PeproTech, cat. 100-26), 1 ng/mL recombinant human fibroblast growth factor 2 (hFGF-2; PeproTech, cat. 100-18B), and 1 µM prostaglandin E2 (PGE2; Tocris, cat. 2296). The 227483-062-R1-J1-PDC line was cultured in Panc media, containing all 6E components except hFGF-2, with the addition of 500 nM SB-431542 (Selleckchem, cat. S1067) and 10 nM gastrin (Tocris, cat. 3006). […]

[1] = second compound 0.0316 µM, first compound 0.00316 µM
[2] = second compound 0.0316 µM, first compound 0.01 µM
[3] = second compound 0.0316 µM, first compound 0.0316 µM
[4] = second compound 0.0316 µM, first compound 0.1 µM
[5] = second compound 0.0316 µM, first compound 0.316 µM
[6] = second compound 0.0316 µM, first compound 1 µM
[7] = second compound 0.1 µM, first compound 0.00316 µM
[8] = second compound 0.1 µM, first compound 0.01 µM
[9] = second compound 0.1 µM, first compound 0.0316 µM
[10] = second compound 0.1 µM, first compound 0.1 µM
[11] = second compound 0.1 µM, first compound 0.316 µM
[12] = second compound 0.1 µM, first compound 1 µM
[13] = second compound 0.316 µM, first compound 0.00316 µM
[14] = second compound 0.316 µM, first compound 0.01 µM
[15] = second compound 0.316 µM, first compound 0.0316 µM
[16] = second compound 0.316 µM, first compound 0.1 µM
[17] = second compound 0.316 µM, first compound 0.316 µM
[18] = second compound 0.316 µM, first compound 1 µM
[19] = second compound 1 µM, first compound 0.00316 µM
[20] = second compound 1 µM, first compound 0.01 µM
[21] = second compound 1 µM, first compound 0.0316 µM
[22] = second compound 1 µM, first compound 0.1 µM
[23] = second compound 1 µM, first compound 0.316 µM
[24] = second compound 1 µM, first compound 1 µM
[25] = second compound 3.16 µM, first compound 0.00316 µM
[26] = second compound 3.16 µM, first compound 0.01 µM
[27] = second compound 3.16 µM, first compound 0.0316 µM
[28] = second compound 3.16 µM, first compound 0.1 µM
[29] = second compound 3.16 µM, first compound 0.316 µM
[30] = second compound 3.16 µM, first compound 1 µM
[31] = second compound 10 µM, first compound 0.00316 µM
[32] = second compound 10 µM, first compound 0.01 µM
[33] = second compound 10 µM, first compound 0.0316 µM
[34] = second compound 10 µM, first compound 0.1 µM
[35] = second compound 10 µM, first compound 0.316 µM
[36] = second compound 10 µM, first compound 1 µM
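Note: spheroids exposed to agents for 7 days.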
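Throughout, for viability, T/C: 100% = DMSO vehicle wells.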

## COc1c(OCCCN2CCOCC2)ccc2c3n(c(=NC(=O)c4cnc(N)nc4)nc12)CCN3 + CN1CCN(c2cc(C(=O)Nc3cc4cc(-c5cnn(C)c5)ccc4cn3)ccn2)CC1
Second compound 0.0316 µM
  IC50: 0.0866 µM
Second compound 0.1 µM
  IC50: 0.0362 µM
Second compound 0.316 µM
  IC50: < 0.00316 µM
Second compound 1 µM
  IC50: < 0.00316 µM
Second compound 3.16 µM
  IC50: < 0.00316 µM
Second compound 10 µM
  IC50: < 0.00316 µM
[1]
  viability, T/C: 105%
[2]
  viability, T/C: 115%
[3]
  viability, T/C: 89.8%
[4]
  viability, T/C: 44%
[5]
  viability, T/C: 30.8%
[6]
  viability, T/C: 21.6%
[7]
  viability, T/C: 110%
[8]
  viability, T/C: 94.4%
[9]
  viability, T/C: 50.1%
[10]
  viability, T/C: 29.1%
[11]
  viability, T/C: 19.1%
[12]
  viability, T/C: 12.3%
[13]
  viability, T/C: 26.4%
[14]
  viability, T/C: 25.1%
[15]
  viability, T/C: 11.8%
[16]
  viability, T/C: 6.03%
[17]
  viability, T/C: 4.47%
[18]
  viability, T/C: 4.01%
[19]
  viability, T/C: 0.24%
[20]
  viability, T/C: 1.7%
[21]
  viability, T/C: 0.49%
[22]
  viability, T/C: 0.1%
[23]
  viability, T/C: 0.08%
[24]
  viability, T/C: 1.24%
[25]
  viability, T/C: 0.1%
[26]
  viability, T/C: 2.88%
[27]
  viability, T/C: 0.11%
[28]
  viability, T/C: 0.1%
[29]
  viability, T/C: 1.07%
[30]
  viability, T/C: 0.15%
[31]
  viability, T/C: 0.12%
[32]
  viability, T/C: 0.15%
[33]
  viability, T/C: 0.98%
[34]
  viability, T/C: 0.33%
[35]
  viability, T/C: 0.17%
[36]
  viability, T/C: 1.41%

## COc1c(OCCCN2CCOCC2)ccc2c3n(c(=NC(=O)c4cnc(N)nc4)nc12)CCN3 + CNC(=O)c1ccc(Nc2nc(OC3CCCC3)c3c(-c4ccc5nc(C)oc5c4)c[nH]c3n2)c(OC)c1
Second compound 0.0316 µM
  IC50: 0.208 µM
Second compound 0.1 µM
  IC50: 0.0459 µM
Second compound 0.316 µM
  IC50: < 0.00316 µM
Second compound 1 µM
  IC50: < 0.00316 µM
Second compound 3.16 µM
  IC50: < 0.00316 µM
Second compound 10 µM
  IC50: < 0.00316 µM
[1]
  viability, T/C: 92.4%
[2]
  viability, T/C: 94.7%
[3]
  viability, T/C: 115%
[4]
  viability, T/C: 69.1%
[5]
  viability, T/C: 45.7%
[6]
  viability, T/C: 32.3%
[7]
  viability, T/C: 62.4%
[8]
  viability, T/C: 61.5%
[9]
  viability, T/C: 57.7%
[10]
  viability, T/C: 34%
[11]
  viability, T/C: 26.6%
[12]
  viability, T/C: 26.1%
[13]
  viability, T/C: 41.4%
[14]
  viability, T/C: 39.3%
[15]
  viability, T/C: 26.5%
[16]
  viability, T/C: 20.6%
[17]
  viability, T/C: 14.5%
[18]
  viability, T/C: 12.5%
[19]
  viability, T/C: 32.9%
[20]
  viability, T/C: 30.1%
[21]
  viability, T/C: 21.2%
[22]
  viability, T/C: 13.1%
[23]
  viability, T/C: 9.29%
[24]
  viability, T/C: 9.49%
[25]
  viability, T/C: 35.6%
[26]
  viability, T/C: 31.1%
[27]
  viability, T/C: 21.4%
[28]
  viability, T/C: 12%
[29]
  viability, T/C: 9.19%
[30]
  viability, T/C: 8.84%
[31]
  viability, T/C: 35.3%
[32]
  viability, T/C: 29.4%
[33]
  viability, T/C: 19.2%
[34]
  viability, T/C: 11.1%
[35]
  viability, T/C: 10.4%
[36]
  viability, T/C: 7.75%
